melting point: 231 to 233 °C
SMILES: CCOC(=O)c1cc2[nH]nc(N)c2s1 [Compound 6, Ethyl 3-amino-1H-thieno[3,2-c]pyrazole-5-carboxylate]
